# Earlier results in US20230383363A1, “METHOD FOR DETERMINING SENSITIVITY TO PARP INHIBITOR OR DNA DAMAGING AGENT USING NON-FUNCTIONAL TRANSCRIPTOME” (GC GENOME CORPORATION, priority 2020, published 2023).
# Conditions: patients selected by FoundationFocusCDxBRCA (BRCA1 and BRCA2 mutations)
smiles,measurement,value
CNCc1ccc(-c2[nH]c3cc(F)cc4c3c2CCNC4=O)cc1 [rucaparib],overall response rate (ORR),53.8%
